Measurements as given in article PMC3494675, “Structure-Function Analysis of the Glioma Targeting NFL-TBS.40-63 Peptide Corresponding to the Tubulin-Binding Site on the Light Neurofilament Subunit” (PLoS ONE, 2012).
Square brackets hold non-standard residues; d marks the D form. Peptide text beside a SMILES is read from it. * marks the point of attachment. Biotin = O=C1N[C@H]2[C@H](CS[C@H]2CCCCC(=O)*)N1; pS = N[C@@H](COP(=O)(O)O)C(=O)O

What was measured:
[1] = tested on: T98G human glioblastoma cells; experiment: Peptide incorporation into T98G cells (immunocytochemistry, cell counting); assay type: cell-based; details: 6 hours; for Peptide incorporation (% of cells): T98G cells, 10 µM biotinylated peptide, Alexa-labeled avidin/streptavidin fluorescence microscopy, minimum 200 cells per experiment, mean ± S.E.M., triplicated; for Cell penetration / internalization in T98G cells (in words): 10 µM, immunocytochemistry, compared to original NFL-TBS.40-63
Description: (§1) Cells containing the biotinylated peptide were detected using Alexa-labeled avidin (green fluorescence) and those displaying a normal or a destroyed MT network were detected with an anti-tubulin antibody (red fluorescence) ( Figure 1A-B ). Then, we counted a minimum of 200 cells per slide containing or not the peptide, and with a normal or destroyed microtubule network ( Figure 1C ). As illustrated on Figure 1A glioblastoma cells contain a rich MT network. […] Cells were plated on cover slips and cultured in media containing biotinylated peptides (10 μM) for 6 hours. […] The cells were then incubated during 10 min in a 0.5% triton X-100 permeabilization solution, and washed 3 times in PBS. Next, they were incubated in a blocking solution (PBS 5% BSA) for 15 min, then incubated with mouse anti-ß-tubulin antibody (Sigma) 1/200 overnight. Tubulin and biotinylated peptides were localized using respectively Alexa 568 nm anti-mouse antibody and streptavidin Alexa 488 nm (Molecular Probes) 1/200 for 1 hour, followed by washing in PBS. […] Sigma) for 5 min, washed twice with PBS, then cover slips were mounted with an antifading solution. Observations were performed with an Olympus confocal microscope (BX50) using Fluoview.3.1. Software or a Leica DMI6000 inverted microscope and analyzed with Metamorph 7.1.7.0. software. We counted cells containing the peptide and cells displaying a destroyed MT network. Experiments were repeated at least three times, and a minimum of 200 cells was scored during each experiment.

[2] = tested on: T98G human glioblastoma cells; experiment: Disintegration of the microtubule network in T98G cells (anti-tubulin immunostaining, cell counting); assay type: cell-based; details: 6 hours; for Disintegration of MT (% of cells): T98G cells, 10 µM biotinylated peptide, anti-tubulin immunostaining, minimum 200 cells per experiment, mean ± S.E.M., triplicated; for Effect on MT network of T98G / glioma cells (in words): 10 µM, immunocytochemistry
Description: as §1

| Compound | Peptide incorporation (% of cells) [1] | Disintegration of MT (% of cells) [2] | Cell penetration / internalization in T98G cells (in words) [1] | Effect on MT network of T98G / glioma cells (in words) [2] |
| --- | --- | --- | --- | --- |
| CC(C)C[C@H](NC(=O)[C@H](CO)NC(=O)[C@H](CO)NC(=O)[C@H](CO)NC(=O)[C@@H](NC(=O)[C@@H]1CCCN1C(=O)[C@H](C)NC(=O)[C@H](C)NC(=O)[C@H](Cc1ccc(O)cc1)NC(=O)[C@H](CO)NC(=O)[C@H](CO)NC(=O)[C@H](Cc1ccc(O)cc1)NC(=O)CCCC[C@@H]1SC[C@@H]2NC(=O)N[C@@H]21)C(C)C)C(=O)N[C@@H](CO)C(=O)N[C@H](C(=O)N[C@@H](CCCNC(=N)N)C(=O)N[C@@H](CCCNC(=N)N)C(=O)N[C@@H](CO)C(=O)N[C@@H](Cc1ccc(O)cc1)C(=O)N[C@@H](CO)C(=O)N[C@@H](CO)C(=O)N[C@@H](CO)C(=O)N[C@@H](CO)C(=O)NCC(=O)N[C@@H](CO)C(N)=O)C(C)C [Ser5Ala] (Biotin-YSSYAAPVSSSLSVRRSYSSSSGS-NH2) | 16.0±1.4 % of cells | 23.6±1.6 % of cells | – | – |
| CC(C)C[C@H](NC(=O)[C@H](CO)NC(=O)[C@H](CO)NC(=O)[C@H](C)NC(=O)[C@@H](NC(=O)[C@@H]1CCCN1C(=O)[C@H](C)NC(=O)[C@H](CO)NC(=O)[C@H](Cc1ccc(O)cc1)NC(=O)[C@H](CO)NC(=O)[C@H](CO)NC(=O)[C@H](Cc1ccc(O)cc1)NC(=O)CCCC[C@@H]1SC[C@@H]2NC(=O)N[C@@H]21)C(C)C)C(=O)N[C@@H](CO)C(=O)N[C@H](C(=O)N[C@@H](CCCNC(=N)N)C(=O)N[C@@H](CCCNC(=N)N)C(=O)N[C@@H](CO)C(=O)N[C@@H](Cc1ccc(O)cc1)C(=O)N[C@@H](CO)C(=O)N[C@@H](CO)C(=O)N[C@@H](CO)C(=O)N[C@@H](CO)C(=O)NCC(=O)N[C@@H](CO)C(N)=O)C(C)C [Ser9Ala] (Biotin-YSSYSAPVASSLSVRRSYSSSSGS-NH2) | 23.3±8.4 % of cells | 27.1±4.8 % of cells | penetrated in cells significantly although to a much lesser extent than the wt peptide | – |
| CC(C)C[C@H](NC(=O)[C@H](CO)NC(=O)[C@H](C)NC(=O)[C@H](CO)NC(=O)[C@@H](NC(=O)[C@@H]1CCCN1C(=O)[C@H](C)NC(=O)[C@H](CO)NC(=O)[C@H](Cc1ccc(O)cc1)NC(=O)[C@H](CO)NC(=O)[C@H](CO)NC(=O)[C@H](Cc1ccc(O)cc1)NC(=O)CCCC[C@@H]1SC[C@@H]2NC(=O)N[C@@H]21)C(C)C)C(=O)N[C@@H](CO)C(=O)N[C@H](C(=O)N[C@@H](CCCNC(=N)N)C(=O)N[C@@H](CCCNC(=N)N)C(=O)N[C@@H](CO)C(=O)N[C@@H](Cc1ccc(O)cc1)C(=O)N[C@@H](CO)C(=O)N[C@@H](CO)C(=O)N[C@@H](CO)C(=O)N[C@@H](CO)C(=O)NCC(=O)N[C@@H](CO)C(N)=O)C(C)C [Ser10Ala] (Biotin-YSSYSAPVSASLSVRRSYSSSSGS-NH2) | 34.5±0 % of cells | 32.9±1.9 % of cells | penetrated in cells significantly although to a much lesser extent than the wt peptide | – |
| CC(C)C[C@H](NC(=O)[C@H](C)NC(=O)[C@H](CO)NC(=O)[C@H](CO)NC(=O)[C@@H](NC(=O)[C@@H]1CCCN1C(=O)[C@H](C)NC(=O)[C@H](CO)NC(=O)[C@H](Cc1ccc(O)cc1)NC(=O)[C@H](CO)NC(=O)[C@H](CO)NC(=O)[C@H](Cc1ccc(O)cc1)NC(=O)CCCC[C@@H]1SC[C@@H]2NC(=O)N[C@@H]21)C(C)C)C(=O)N[C@@H](CO)C(=O)N[C@H](C(=O)N[C@@H](CCCNC(=N)N)C(=O)N[C@@H](CCCNC(=N)N)C(=O)N[C@@H](CO)C(=O)N[C@@H](Cc1ccc(O)cc1)C(=O)N[C@@H](CO)C(=O)N[C@@H](CO)C(=O)N[C@@H](CO)C(=O)N[C@@H](CO)C(=O)NCC(=O)N[C@@H](CO)C(N)=O)C(C)C [Ser11Ala] (Biotin-YSSYSAPVSSALSVRRSYSSSSGS-NH2) | 2.5±2.5 % of cells | 15.9±6.5 % of cells | – | – |
| CC(C)C[C@H](NC(=O)[C@H](CO)NC(=O)[C@H](CO)NC(=O)[C@H](CO)NC(=O)[C@@H](NC(=O)[C@@H]1CCCN1C(=O)[C@H](C)NC(=O)[C@H](CO)NC(=O)[C@H](Cc1ccc(O)cc1)NC(=O)[C@H](CO)NC(=O)[C@H](CO)NC(=O)[C@H](Cc1ccc(O)cc1)NC(=O)CCCC[C@@H]1SC[C@@H]2NC(=O)N[C@@H]21)C(C)C)C(=O)N[C@@H](C)C(=O)N[C@H](C(=O)N[C@@H](CCCNC(=N)N)C(=O)N[C@@H](CCCNC(=N)N)C(=O)N[C@@H](CO)C(=O)N[C@@H](Cc1ccc(O)cc1)C(=O)N[C@@H](CO)C(=O)N[C@@H](CO)C(=O)N[C@@H](CO)C(=O)N[C@@H](CO)C(=O)NCC(=O)N[C@@H](CO)C(N)=O)C(C)C [Ser13Ala] (Biotin-YSSYSAPVSSSLAVRRSYSSSSGS-NH2) | 12.2±0.8 % of cells | 16.6±5.2 % of cells | – | – |
| CC(C)C[C@H](NC(=O)[C@H](CO)NC(=O)[C@H](CO)NC(=O)[C@H](CO)NC(=O)[C@@H](NC(=O)[C@@H]1CCCN1C(=O)[C@H](C)NC(=O)[C@H](CO)NC(=O)[C@H](Cc1ccc(O)cc1)NC(=O)[C@H](CO)NC(=O)[C@H](CO)NC(=O)[C@H](Cc1ccc(O)cc1)NC(=O)CCCC[C@@H]1SC[C@@H]2NC(=O)N[C@@H]21)C(C)C)C(=O)N[C@@H](CO)C(=O)N[C@H](C(=O)N[C@@H](CCCNC(=N)N)C(=O)N[C@@H](CCCNC(=N)N)C(=O)N[C@@H](CC(=O)O)C(=O)N[C@@H](Cc1ccc(O)cc1)C(=O)N[C@@H](CC(=O)O)C(=O)N[C@@H](CO)C(=O)N[C@@H](CO)C(=O)N[C@@H](CO)C(=O)NCC(=O)N[C@@H](CO)C(N)=O)C(C)C [Ser17,19Asp] (Biotin-YSSYSAPVSSSLSVRRDYDSSSGS-NH2) | 29.0±12.7 % of cells | 18.6±6.8 % of cells | decreased internalization | not altered |
| CC(C)C[C@H](NC(=O)[C@H](CO)NC(=O)[C@H](CO)NC(=O)[C@H](CO)NC(=O)[C@@H](NC(=O)[C@@H]1CCCN1C(=O)[C@H](C)NC(=O)[C@H](CO)NC(=O)[C@H](Cc1ccc(O)cc1)NC(=O)[C@H](CO)NC(=O)[C@H](CO)NC(=O)[C@H](Cc1ccc(O)cc1)NC(=O)CCCC[C@@H]1SC[C@@H]2NC(=O)N[C@@H]21)C(C)C)C(=O)N[C@@H](CO)C(=O)N[C@H](C(=O)N[C@@H](CCCNC(=N)N)C(=O)N[C@@H](CCCNC(=N)N)C(=O)N[C@@H](COP(=O)(O)O)C(=O)N[C@@H](Cc1ccc(O)cc1)C(=O)N[C@@H](COP(=O)(O)O)C(=O)N[C@@H](CO)C(=O)N[C@@H](CO)C(=O)N[C@@H](CO)C(=O)NCC(=O)N[C@@H](CO)C(N)=O)C(C)C [Ser17,19SerP] (Biotin-YSSYSAPVSSSLSVRR[pS]Y[pS]SSSGS-NH2) | 32±2.1 % of cells | 11.0±3.0 % of cells | decreased internalization | not altered |
| CC(C)C[C@H](NC(=O)[C@H](CO)NC(=O)[C@H](CO)NC(=O)[C@H](CO)NC(=O)[C@@H](NC(=O)[C@@H]1CCCN1C(=O)[C@H](C)NC(=O)[C@H](CO)NC(=O)[C@H](Cc1ccc(O)cc1)NC(=O)[C@H](CO)NC(=O)[C@H](CO)NC(=O)[C@H](Cc1ccc(O)cc1)NC(=O)CCCC[C@@H]1SC[C@@H]2NC(=O)N[C@@H]21)C(C)C)C(=O)N[C@@H](CO)C(=O)N[C@H](C(=O)N[C@@H](CCCNC(=N)N)C(=O)N[C@@H](CCCNC(=N)N)C(=O)N[C@@H](C)C(=O)N[C@@H](Cc1ccc(O)cc1)C(=O)N[C@@H](CO)C(=O)N[C@@H](CO)C(=O)N[C@@H](CO)C(=O)N[C@@H](CO)C(=O)NCC(=O)N[C@@H](CO)C(N)=O)C(C)C [Ser17Ala] (Biotin-YSSYSAPVSSSLSVRRAYSSSSGS-NH2) | 4.6±1.8 % of cells | 18.1±4.4 % of cells | – | – |
| CC(C)C[C@H](NC(=O)[C@H](CO)NC(=O)[C@H](CO)NC(=O)[C@H](CO)NC(=O)[C@@H](NC(=O)[C@@H]1CCCN1C(=O)[C@H](C)NC(=O)[C@H](CO)NC(=O)[C@H](Cc1ccc(O)cc1)NC(=O)[C@H](CO)NC(=O)[C@H](CO)NC(=O)[C@H](Cc1ccc(O)cc1)NC(=O)CCCC[C@@H]1SC[C@@H]2NC(=O)N[C@@H]21)C(C)C)C(=O)N[C@@H](CO)C(=O)N[C@H](C(=O)N[C@@H](CCCNC(=N)N)C(=O)N[C@@H](CCCNC(=N)N)C(=O)N[C@@H](CC(=O)O)C(=O)N[C@@H](Cc1ccc(O)cc1)C(=O)N[C@@H](CO)C(=O)N[C@@H](CO)C(=O)N[C@@H](CO)C(=O)N[C@@H](CO)C(=O)NCC(=O)N[C@@H](CO)C(N)=O)C(C)C [Ser17Asp] (Biotin-YSSYSAPVSSSLSVRRDYSSSSGS-NH2) | 31.3±11.2 % of cells | 22.2±3.4 % of cells | decreased internalization | not altered |
